# Source: ChEMBL document CHEMBL1201862, “PubChem BioAssay data set” (2004)
# The source made the active and inactive calls.
# Columns and labels:
# cells = format: functional
# [1] = target: T1, Calpain-2 catalytic subunit (Sus scrofa, UniProt P43367); test: pig calpain II inhibitor potency, dose response, biochemical, fluorogenic peptide substrate (AID 1420); format: functional
# T1 sequence (P43367 whole entry): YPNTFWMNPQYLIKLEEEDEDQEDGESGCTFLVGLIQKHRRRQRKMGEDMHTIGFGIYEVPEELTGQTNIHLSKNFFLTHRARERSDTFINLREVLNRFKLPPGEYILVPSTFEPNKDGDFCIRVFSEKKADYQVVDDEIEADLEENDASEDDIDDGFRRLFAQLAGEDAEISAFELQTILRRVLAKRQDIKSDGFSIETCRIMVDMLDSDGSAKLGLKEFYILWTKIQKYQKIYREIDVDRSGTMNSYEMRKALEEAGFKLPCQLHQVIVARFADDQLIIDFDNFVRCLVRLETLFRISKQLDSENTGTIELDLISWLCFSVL
# Large T antigen = Large T antigen (Simian virus 40, UniProt P03070); format: functional, Betapolyomavirus macacae;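 also: Confirmatory-stage PubChem screen for compounds that inhibit SV40 T antigen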
# Chain of Large T antigen (P03070 whole entry): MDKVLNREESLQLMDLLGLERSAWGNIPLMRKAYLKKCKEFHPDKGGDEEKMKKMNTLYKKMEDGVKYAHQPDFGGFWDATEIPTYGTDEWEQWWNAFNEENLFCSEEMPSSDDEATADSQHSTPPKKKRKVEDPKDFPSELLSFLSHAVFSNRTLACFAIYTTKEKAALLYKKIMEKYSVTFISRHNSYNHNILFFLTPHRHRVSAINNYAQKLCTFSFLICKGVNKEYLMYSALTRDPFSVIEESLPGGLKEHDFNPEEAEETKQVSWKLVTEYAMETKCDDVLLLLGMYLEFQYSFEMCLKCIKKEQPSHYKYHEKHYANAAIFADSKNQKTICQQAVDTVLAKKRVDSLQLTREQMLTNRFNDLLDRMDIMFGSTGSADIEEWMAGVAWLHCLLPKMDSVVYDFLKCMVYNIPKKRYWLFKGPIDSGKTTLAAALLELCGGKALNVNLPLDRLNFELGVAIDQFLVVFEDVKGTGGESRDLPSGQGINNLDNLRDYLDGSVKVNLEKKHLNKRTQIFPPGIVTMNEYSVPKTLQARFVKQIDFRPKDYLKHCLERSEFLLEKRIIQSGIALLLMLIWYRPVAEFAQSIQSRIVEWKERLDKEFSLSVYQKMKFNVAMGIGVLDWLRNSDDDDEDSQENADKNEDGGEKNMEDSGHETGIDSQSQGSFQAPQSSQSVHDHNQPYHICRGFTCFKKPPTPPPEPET
# [2] = growth suppression of PTEN-null colon cells, dose response, cell-based, HCT116 PTEN knockout (AID 1047); format: functional;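 also: HCT116 colon tumor cells with PTEN knocked out; cells exposed to compound for 60 hours before readout; potency for loss of cell viability measured by luminescence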
# [3] = growth suppression of beta-catenin-knockout colon cells, dose response, cell-based, HCT116, human colon tumor (AID 1045); format: functional;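 also: HCT116 colon tumor cells with beta catenin knocked out; cells exposed to compound for 60 hours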
# [4] = inhibitors of intracellular T. cruzi replication, confirmation, NIH3T3 host cells, beta-gal luminescence (AID 2044); format: functional, cell-based;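 also: intracellular parasites grown in NIH/3T3 mouse fibroblasts as host cells; luminescent beta-galactosidase reporter signal from transgenic T. cruzi replicating inside host cells; inhibitors lower the luminescence signal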
# [5] = cytotoxicity toward NIH3T3 fibroblasts, dose response, counter-screen, cell-based, ATP luminescence, mouse fibroblasts (AID 2010); format: functional;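 also: cells exposed to compound for about 90 hours before reading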
# H9c2 = test: cells; format: functional, cell-based; conditions: Rattus norvegicus, H9c2, Myocardium;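 also: confirmatory concentration-response retest of ultra-high-throughput screening hits for modulation of myocardial damage; cell death induced by hydrogen peroxide oxidative stress; compound pretreatment for 60 min then peroxide exposure for 2 h; potency is for protecting the cells against peroxide damage rather than for killing them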
# BJ [6] = test: cytotoxicity toward BJ-TERT fibroblasts, dose response, cell-based, RAS-independent, luminescence (AID 1933); format: functional; conditions: Homo sapiens
# BJ [7] = test: cells; format: functional, cell-based; conditions: Homo sapiens
# BJ [8] = test: cytotoxicity toward BJ-TERT-LT-ST fibroblasts, dose response, cell-based, RAS-independent, luminescence (AID 1935); format: functional; conditions: Homo sapiens;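 also: BJ fibroblasts immortalized with TERT plus LT and ST oncogenes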
# [9] = cytotoxicity toward DRD oncogenic fibroblasts, dose response, cell-based, non-viral oncogenic, luminescence (AID 1934); format: functional; conditions: Homo sapiens
# [10] = target: T2, RNA-binding protein pos-1 (Caenorhabditis elegans, UniProt G5EF15); test: inhibitors of POS-1/mex-3 RNA binding, dose response, biochemical, fluorescence polarization (AID 1964);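 also: purified POS-1 fused to maltose binding protein made in E. coli; potency of compounds blocking POS-1 binding to fluorescent RNA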
# T2 sequence (G5EF15 whole entry): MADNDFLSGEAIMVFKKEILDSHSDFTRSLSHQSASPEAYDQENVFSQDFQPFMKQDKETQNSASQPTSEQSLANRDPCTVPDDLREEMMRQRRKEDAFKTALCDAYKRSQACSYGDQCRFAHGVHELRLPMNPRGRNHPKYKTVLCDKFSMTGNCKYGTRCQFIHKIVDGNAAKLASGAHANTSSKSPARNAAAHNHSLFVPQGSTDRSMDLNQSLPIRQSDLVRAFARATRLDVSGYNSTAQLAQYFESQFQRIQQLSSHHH
# [11] = target: T3, Zinc finger protein mex-5 (Caenorhabditis elegans, UniProt Q9XUB2); test: MEX-5/TCR-2 RNA interaction inhibitors, dose response, biochemical, C. elegans, fluorescence polarization (AID 1960)
# T3 sequence (Q9XUB2 whole entry): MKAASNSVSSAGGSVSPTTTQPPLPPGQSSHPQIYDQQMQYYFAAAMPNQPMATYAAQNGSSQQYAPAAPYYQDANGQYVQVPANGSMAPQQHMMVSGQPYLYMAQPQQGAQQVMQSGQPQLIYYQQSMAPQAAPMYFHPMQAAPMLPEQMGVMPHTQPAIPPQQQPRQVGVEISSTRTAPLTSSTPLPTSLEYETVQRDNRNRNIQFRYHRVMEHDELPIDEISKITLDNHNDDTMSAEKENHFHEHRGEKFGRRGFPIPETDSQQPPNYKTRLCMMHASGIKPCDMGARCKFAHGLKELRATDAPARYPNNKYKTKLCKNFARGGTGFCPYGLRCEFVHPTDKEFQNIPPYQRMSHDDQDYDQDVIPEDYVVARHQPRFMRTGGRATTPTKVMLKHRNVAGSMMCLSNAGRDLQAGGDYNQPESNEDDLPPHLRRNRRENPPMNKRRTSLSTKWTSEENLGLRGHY
# [12] = target: T4, Heat shock factor protein 1 (Mus musculus, UniProt P38532); test: inhibition of MG132-induced HSE-luciferase signal, confirmation, cell-based, NIH3T3, luminescence, dose retest (AID 2382); format: functional;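 also: NIH3T3 fibroblasts with HSF1-driven luciferase reporter stressed by proteasome inhibitor MG132; luminescence from HSF1-driven luciferase expression after 8 hours of MG132 stress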
# T4 sequence (P38532 whole entry): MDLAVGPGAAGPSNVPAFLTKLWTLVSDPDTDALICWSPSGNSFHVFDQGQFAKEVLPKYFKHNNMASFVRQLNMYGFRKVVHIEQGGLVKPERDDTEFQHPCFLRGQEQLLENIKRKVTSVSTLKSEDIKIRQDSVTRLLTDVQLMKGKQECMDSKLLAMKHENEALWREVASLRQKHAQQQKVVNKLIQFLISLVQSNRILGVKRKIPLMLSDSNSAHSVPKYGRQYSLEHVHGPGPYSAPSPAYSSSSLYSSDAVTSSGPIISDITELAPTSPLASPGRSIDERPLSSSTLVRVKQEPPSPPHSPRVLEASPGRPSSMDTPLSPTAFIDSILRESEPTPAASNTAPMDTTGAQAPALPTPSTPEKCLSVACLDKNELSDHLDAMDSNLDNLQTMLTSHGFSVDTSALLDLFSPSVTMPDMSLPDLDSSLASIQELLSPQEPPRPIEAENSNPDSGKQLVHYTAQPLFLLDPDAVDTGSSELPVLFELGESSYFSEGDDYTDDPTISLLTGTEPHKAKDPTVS
# H4 = test: Luminescence Cell-Based Dose Response HTS to Identify Activators of 5'UTR Stem-Loop Driven Prion Protein mRNA Translation in H4 Neuroglioblastoma Cells. [Related pubchem assays: 1829 (Project Summary), 1814 (Primary HTS)]; format: functional; conditions: Homo sapiens
# [13] = Luminescence Cell-Based Dose Response HTS to Identify Activators of Luciferase Translation or Activity in H4 […] Cells. [Related pubchem assays: 1829 (Project Summary), 1814 (Primary HTS)]; format: functional
# [14] = target: T5, Rac GTPase-activating protein 1 (Homo sapiens, UniProt Q9H0H5); test: MgcRacGAP GTPase-activating activity inhibitors, confirmation, biochemical, ADP Hunter fluorescence, primary and confirmatory (AID 624330); format: functional
# T5 sequence (Q9H0H5 whole entry): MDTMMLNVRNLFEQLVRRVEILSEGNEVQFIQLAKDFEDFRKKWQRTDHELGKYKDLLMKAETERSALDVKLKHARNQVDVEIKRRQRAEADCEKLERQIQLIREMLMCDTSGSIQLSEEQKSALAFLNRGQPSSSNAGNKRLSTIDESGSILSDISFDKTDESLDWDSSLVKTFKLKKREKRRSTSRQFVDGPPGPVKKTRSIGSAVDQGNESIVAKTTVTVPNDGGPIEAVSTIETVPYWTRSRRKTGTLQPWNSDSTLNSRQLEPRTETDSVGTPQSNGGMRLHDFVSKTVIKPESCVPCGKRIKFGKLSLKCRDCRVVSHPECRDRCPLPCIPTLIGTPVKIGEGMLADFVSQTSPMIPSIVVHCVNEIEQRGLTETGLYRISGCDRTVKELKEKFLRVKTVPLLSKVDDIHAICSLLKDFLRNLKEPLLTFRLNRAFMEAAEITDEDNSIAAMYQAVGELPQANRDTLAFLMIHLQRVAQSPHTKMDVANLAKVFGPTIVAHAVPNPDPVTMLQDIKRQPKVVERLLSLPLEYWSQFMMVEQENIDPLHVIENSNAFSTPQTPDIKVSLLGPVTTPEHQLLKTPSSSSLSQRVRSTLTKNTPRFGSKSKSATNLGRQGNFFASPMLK
smiles,measurement,setting,value
Cc1c(-c2ccc(Br)cc2)nc2ccccn12,IC50,cells,49.4 µM (active)
O=C(N[C@@H](Cc1ccccc1)C(=O)OCc1ccccc1)c1[nH]cnc1C(=O)N1CCN(c2ccccc2)CC1,IC50,[1],6.6 µM (not active)
C[C@H](NS(=O)(=O)c1ccc(Cl)cc1)C(=O)OCC(=O)NC(=O)Nc1ccc2c(c1)OCCO2,IC50,[1],14.2 µM (not active)
CCCc1cc(O)nc(Nc2ccc(O)cc2)n1,IC50,Large T antigen,6.91 µM (active)
CC(C)Cn1c(N)c(C(=O)CSc2ncnc3sc4c(c23)CCCC4)c(=O)n(C)c1=O,EC50,[2],12.1 µM (active)
same,EC50,[3],12.2 µM (active)
COc1ccc(N2C3=C(CC4=C2CC(C)(C)CC4=O)C(=O)CC(C)(C)C3)cc1,EC50,[4],0.484 µM (active)
same,EC50,[2],9.52 µM (active)
same,EC50,[5],9.07 µM (active)
same,EC50,[3],8.4 µM (active)
C[C@@H]1ON(C)[C@H]2C[C@H]3c4[nH]c5ccc(-c6ccc7c(c6)OCO7)cc5c4CCN3C[C@@H]12,IC50,H9c2,> 79 µM (inactive)
COc1ccc(/C=N/NC(=O)c2ccc(Br)cc2)cc1CN1CCOCC1,IC50,Large T antigen,15.8 µM (active)
CS(=O)(=O)N(CC(O)Cn1c2ccccc2c2ccccc21)c1cccc2ccccc12 (configuration not stated),EC50,[2],16 µM (active)
same,EC50,[3],18.1 µM (active)
CCOC(=O)C1CCN(S(=O)(=O)c2cc(Br)cc3c2N(C(=O)C2CC2)CC3)CC1,IC50,[1],11.5 µM (not active)
Nc1ccc(-c2nnc(O)c3ccccc23)cc1N,IC50,H9c2,> 79 µM (inactive)
N=C(NOC(=O)CCCCCN1C(=O)c2ccccc2C1=O)c1ccccc1,IC50,[1],48.1 µM (not active)
O=C(Nc1ccc(N2CCCC2)cc1)c1cc(Cl)ccc1Cl,EC50,BJ [6],13.6 µM (active)
same,EC50,BJ [7],> 150 µM (not active)
same,EC50,BJ [8],146 µM (active)
same,EC50,[9],15.8 µM (active)
N#CC1=C(N)C(C#N)(C#N)C(c2cccnc2)C2COCC=C12 (configuration not stated),EC50,[10],> 300 µM (not active)
same,EC50,[11],> 300 µM (not active)
O=C1NC(=O)[C@@H]2C3c4ccccc4C=CN3[C@H](C(=O)c3cccs3)[C@H]12 (some centres not stated),EC50,[10],24.6 µM (inconclusive)
same,EC50,[11],16.4 µM (active)
CCOC(=O)C1Nc2ccc(C(F)(F)F)cc2C2C=CCC12 (configuration not stated),EC50,[10],> 300 µM (not active)
same,EC50,[11],> 300 µM (not active)
O=C(CN1CCN(c2ccc(O)cc2)CC1)Nc1ccc2c(c1)OCCO2,IC50,Large T antigen,8.22 µM (active)
c1ccc(-c2nc(-c3ccccn3)nc(-c3ccccn3)n2)nc1,EC50,[10],31.1 µM (active)
same,EC50,[11],54.6 µM (active)
CC(C)(C)c1ccc(OCCOc2ccc(C(C)(C)C)cc2NC=O)c(NC=O)c1,EC50,[4],2.47 µM (active)
same,IC50,[1],16.6 µM (not active)
same,EC50,[5],> 60 µM (not active)
CCOC(=O)COc1cc(N)c(Cl)cc1Cl,IC50,cells,7.65 µM (active)
O=C(OCCCN1CCOCC1)c1ccc(O)c(O)c1,EC50,[12],34.7 µM (active)
same,IC50,Large T antigen,11.7 µM (active)
CCOC(=O)c1cccc(-n2c(-c3ccc(OC)cc3)nc3nc4ccccc4nc32)c1,EC50,[2],15.3 µM (active)
same,EC50,[3],13.5 µM (active)
CC(=O)c1ccc(NC(=O)CSc2nnc(-c3ccncc3)o2)cc1,EC50,[10],> 300 µM (not active)
same,EC50,[11],> 300 µM (not active)
COc1ccccc1OCCNC(=O)c1cc([N+](=O)[O-])cc([N+](=O)[O-])c1,EC50,[4],0.107 µM (active)
same,EC50,[5],> 60 µM (not active)
same,IC50,cells,47.6 µM (active)
Nc1nc(NC(=O)c2cccs2)nn1-c1ccccc1,EC50,H4,> 120 µM (not active)
Cc1cc(O)nc2ccc(S(=O)(=O)Nc3ccc(O)cc3)cc12,IC50,Large T antigen,7.49 µM (active)
COc1ccccc1-c1cc(C(=O)N/N=C/C=C/c2ccccc2[N+](=O)[O-])c2ccccc2n1,IC50,H9c2,> 79 µM (inactive)
Cc1[nH]c2ccc(-c3nnc(SCC(=O)c4ccc(F)cc4)o3)cc2c1C,EC50,[12],> 195 µM (not active)
same,EC50,[2],33.4 µM (active)
same,EC50,[3],31.2 µM (active)
Brc1ccc(-c2csc(NC3=NCCCCC3)n2)cc1,EC50,[13],18.9 µM (active)
same,EC50,H4,36.6 µM (active)
COc1ccc(NC(=O)c2c(Cl)n(C)c3ccccc23)cc1,EC50,BJ [6],22.7 µM (active)
same,EC50,BJ [7],23 µM (active)
same,EC50,BJ [8],> 150 µM (inconclusive)
same,EC50,[9],25.3 µM (active)
CCOc1ccc(Cl)cc1S(=O)(=O)N1CCN(c2ccc(F)cc2)CC1,IC50,[1],7.1 µM (not active)
Cc1ccc(-c2nnc(S)n2/N=C/c2ccc(C(=O)O)cc2)cc1,IC50,[14],74.4 µM (active)
CN(C(=O)CCc1nc(O)c2ccccc2n1)C1CCS(=O)(=O)C1 (configuration not stated),IC50,H9c2,> 79 µM (inactive)
O=S(=O)(c1ccccc1)N1CCN(c2nc(-c3cccnc3)nc3ccccc23)CC1,IC50,H9c2,10.2 µM (active)
O/N=C(\c1ccc(Cl)cc1)c1cc2ccccc2o1,IC50,[1],2.06 µM (not active)
Nc1ncccc1OCc1ccc(Br)cc1,EC50,[13],1.05 µM (active)
same,EC50,H4,> 120 µM (not active)
COc1cc2c(cc1OC)C[N+](C)(C)CC2,IC50,Large T antigen,55.1 µM (active)
COc1ccccc1NS(=O)(=O)c1ccc2oc(SCC(=O)N3CCNC3=O)nc2c1,IC50,H9c2,15.8 µM (active)
CN1C(=O)C(=CNCCCCCCCCCCC(=O)O)C(=O)N(C)C1=O,EC50,[10],> 300 µM (not active)
same,EC50,[11],> 300 µM (not active)
COc1ccccc1NS(=O)(=O)c1cc(N)ccc1N1CCCC1,IC50,[14],47.8 µM (active)
